According to patent US20260070945A1, “MACROCYCLIC IMMUNOMODULATORS” (Bristol-Myers Squibb Company, priority 2022, published 2026):
Where a SMILES comes first, the peptide text is derived from it. Bridges are numbered along the chain shown (N, C = ends). [ ]: non-standard residue; d: D form. The star is where a group is joined. X4 = NCC[C@H](NC(=O)CNCCNCCN*)C(=O)NCCCCCCCCCCC(=O)O; Phe(3-CF3) = N[C@@H](Cc1cccc(C(F)(F)F)c1)C(=O)O; Phe(4-CF3) = N[C@@H](Cc1ccc(C(F)(F)F)cc1)C(=O)O; Phe(4-COOH) = N[C@@H](Cc1ccc(C(=O)O)cc1)C(=O)O; Bip = N[C@@H](Cc1ccc(-c2ccccc2)cc1)C(=O)O; Phe(3-Me) = Cc1cccc(C[C@H](N)C(=O)O)c1; NH(CH2)12COOH = O=C(O)CCCCCCCCCCCCN*; Val(3-OH) = CC(C)(O)[C@H](N)C(=O)O; 4Pal = N[C@@H](Cc1ccncc1)C(=O)O; Cha = N[C@@H](CC1CCCCC1)C(=O)O; Carboxymethyl = O=C(O)C*; NMeA = CN[C@@H](C)C(=O)O; Orn = NCCC[C@H](N)C(=O)O; Aun = NCCCCCCCCCCC(=O)O; Dab = NCC[C@H](N)C(=O)O; Dap = NC[C@H](N)C(=O)O; AEEA = NCCOCCOCC(=O)O

These compounds were tested against T1, PD-1/PD-L1 interaction (PE-labeled human PD-L1-Ig binding to Jurkat cell line over-expressing human PD-1) (Homo sapiens, UniProt Q15116) (assay: Jurkat-PD-1 Cell Binding High-Content Screening Assay (CBA)). Details: Jurkat-hPD-1 cells, PE-labeled PD-L1-Ig 20 nM final; read-out: Jurkat HPD1 PDL1 IC50.
T1 construct: expressed in transfected cells; host or cells: Jurkat
T1 sequence (Q15116 25-288): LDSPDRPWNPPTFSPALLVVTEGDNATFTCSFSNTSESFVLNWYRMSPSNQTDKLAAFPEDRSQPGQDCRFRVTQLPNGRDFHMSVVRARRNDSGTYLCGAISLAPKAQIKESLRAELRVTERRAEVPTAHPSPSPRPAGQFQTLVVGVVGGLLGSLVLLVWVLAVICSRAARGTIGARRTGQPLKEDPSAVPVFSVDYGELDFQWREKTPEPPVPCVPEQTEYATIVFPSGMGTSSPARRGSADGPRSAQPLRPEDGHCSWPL
In short: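 In this imaging assay, cells in 10% FCS medium see compound for 2 h at 37 °C and then labeled ligand at 20 nM final for 1 h. Paraformaldehyde fixation, Hoechst 33342 staining and dPBS washes precede image capture.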

Question: How did the IC50 turn out when `CC(C)C[C@@H]1NC(=O)[C@H](Cc2c[nH]c3ccccc23)NC(=O)[C@H](CC(=O)O)NC(=O)[C@H](Cc2c[nH]cn2)NC(=O)[C@H](Cc2ccc(OCC(=O)O)cc2)NC(=O)CSC[C@@H](C(=O)N[C@@H](CCCN)C(=O)NCCOCCOCC(=O)NCCCCCCCCCCC(=O)O)NC(=O)[C@H](CO)NC(=O)[C@H](C(C)C)NC(=O)[C@H](CC2CCCCC2)NC(=O)[C@H](CCN)NC(=O)[C@@H](CC(C)C)NC(=O)[C@H](C)N(C)C(=O)[C@H](C(C)C)NC(=O)[C@H](Cc2ccc(-c3ccccc3)cc2)NC1=O` [Example 2146] ({CH2CO}-Y(Carboxymethyl)HDWL[Bip]V[NMeA][dL][Dab][Cha]VSC[Orn][AEEA][Aun]-OH; thioether N-14) was run?
Answer: 12.7 nM

Question: Which IC50 does the source give for `CC(C)C[C@@H]1NC(=O)[C@H](Cc2c[nH]c3ccccc23)NC(=O)[C@H](CC(=O)O)NC(=O)[C@H](Cc2ccc(C(=O)O)cc2)NC(=O)[C@H](Cc2ccc(OCC(=O)O)cc2)NC(=O)CSC[C@@H](C(=O)N[C@@H](CCC(=O)O)C(=O)NCC(=O)NCCCCCCCCCCC(=O)O)NC(=O)[C@H](CO)NC(=O)[C@H](C(C)C)NC(=O)[C@H](CC2CCCCC2)NC(=O)[C@H](CCN)NC(=O)[C@@H](CC(C)C)NC(=O)[C@H](C)N(C)C(=O)[C@H](C(C)C)NC(=O)[C@H](Cc2ccc(-c3ccccc3)cc2)NC1=O` [Example 1035] ({CH2CO}-Y(Carboxymethyl)[Phe(4-COOH)]DWL[Bip]V[NMeA][dL][Dab][Cha]VSCEG[Aun]-OH; thioether N-14) here?
Answer: 19.4 nM

Question: Which IC50 does the source give for `CC(C)C[C@@H]1NC(=O)[C@H](Cc2c[nH]c3ccccc23)NC(=O)[C@H](CC(=O)O)NC(=O)[C@H](Cc2ccc(C(=O)O)cc2)NC(=O)[C@H](Cc2ccc(OCC(=O)O)cc2)NC(=O)CSC[C@@H](C(=O)N[C@@H](CCN)C(=O)NCCOCCOCC(=O)NCCCCCCCCCCC(=O)O)NC(=O)[C@H](CCC(N)=O)NC(=O)[C@H](C(C)C)NC(=O)[C@H](CC2CCCCC2)NC(=O)[C@H](CCN)NC(=O)[C@@H](CC(C)C)NC(=O)[C@H](C)N(C)C(=O)[C@H](C(C)C)NC(=O)[C@H](Cc2ccc(-c3ccccc3)cc2)NC1=O` [Example 1126] ({CH2CO}-Y(Carboxymethyl)[Phe(4-COOH)]DWL[Bip]V[NMeA][dL][Dab][Cha]VQC[Dab][AEEA][Aun]-OH; thioether N-14) here?
Answer: 3.4 nM

Question: Which IC50 does the source give for `Cc1cccc(C[C@@H]2NC(=O)[C@H](CC(=O)O)NC(=O)[C@H](Cc3ccc(OCC(=O)O)cc3)NC(=O)[C@H](CN)NC(=O)CSC[C@@H](C(=O)NCCNCCNCC(=O)N[C@@H](CCN)C(=O)NCCCCCCCCCCC(=O)O)NC(=O)[C@H](CO)NC(=O)[C@H](C(C)C)NC(=O)[C@H](CC(C)C)NC(=O)[C@H](CC(N)=O)NC(=O)[C@@H](CC(C)C)NC(=O)[C@H](C)N(C)C(=O)[C@H](C(C)C)NC(=O)[C@H](Cc3ccc(-c4ccccc4)cc3)NC(=O)[C@H](CC(C)C)NC2=O)c1` [Example 1063] ({CH2CO}-[Dap]Y(Carboxymethyl)D[Phe(3-Me)]L[Bip]V[NMeA][dL]NLVSC-X4; thioether N-14) here?
Answer: 27.9 nM

Question: `CC(C)C[C@@H]1NC(=O)[C@H](Cc2c[nH]c3ccccc23)NC(=O)[C@H](CC(=O)O)NC(=O)[C@H](Cc2ccc(O)cc2)NC(=O)[C@H](Cc2ccccc2)NC(=O)CSC[C@@H](C(=O)N[C@@H](CCCN)C(=O)NCCOCCOCC(=O)NCCCCCCCCCCC(=O)O)NC(=O)[C@H](CO)NC(=O)[C@H](C(C)C)NC(=O)[C@H](CC2CCCCC2)NC(=O)[C@H](CCN)NC(=O)[C@@H](CC(C)C)NC(=O)[C@H](C)N(C)C(=O)[C@H](C(C)C)NC(=O)[C@H](Cc2ccc(-c3ccccc3)cc2)NC1=O` [Example 2148] ({CH2CO}-FYDWL[Bip]V[NMeA][dL][Dab][Cha]VSC[Orn][AEEA][Aun]-OH; thioether N-14) was tested. Which IC50 did it give?
Answer: 54.1 nM

Question: `CC(C)C[C@@H]1NC(=O)[C@H](Cc2c[nH]c3ccccc23)NC(=O)[C@H](CC(=O)O)NC(=O)[C@H](Cc2ccncc2)NC(=O)[C@H](Cc2ccc(OCC(=O)O)cc2)NC(=O)CSC[C@@H](C(=O)N[C@@H](CCCN)C(=O)NCCCCCCCCCCC(=O)O)NC(=O)[C@H](CCC(N)=O)NC(=O)[C@H](C(C)C)NC(=O)[C@H](CC2CCCCC2)NC(=O)[C@H](CCN)NC(=O)[C@@H](CC(C)C)NC(=O)[C@H](C)N(C)C(=O)[C@H](C(C)C)NC(=O)[C@H](Cc2ccc(-c3ccccc3)cc2)NC1=O` [Example 1342] ({CH2CO}-Y(Carboxymethyl)[4Pal]DWL[Bip]V[NMeA][dL][Dab][Cha]VQC[Orn][Aun]-OH; thioether N-14) was tested. Which IC50 did it give?
Answer: 18 nM

Question: How did the IC50 turn out when `CC(C)C[C@H]1NC(=O)[C@H](C)N(C)C(=O)[C@H](Cc2ccc(OCC(=O)O)cc2)NC(=O)[C@H](Cc2ccc(-c3ccccc3)cc2)NC(=O)[C@H](Cc2ccc(OCC(=O)O)cc2)NC(=O)[C@H](Cc2c[nH]c3ccccc23)NC(=O)[C@H](CC(=O)O)NC(=O)[C@H](Cc2ccc(OCC(=O)O)cc2)NC(=O)[C@H]([C@@H](C)O)NC(=O)CSC[C@@H](C(=O)N[C@@H](CCN)C(=O)NCCOCCOCC(=O)NCCCCCCCCCCC(=O)O)NC(=O)[C@H](CC(N)=O)NC(=O)[C@H](C(C)C)NC(=O)[C@H](CC2CCCCC2)NC(=O)[C@H](CCC(=O)O)NC1=O` [Example 1401] ({CH2CO}-TY(Carboxymethyl)DWY(Carboxymethyl)[Bip]Y(Carboxymethyl)[NMeA][dL]E[Cha]VNC[Dab][AEEA][Aun]-OH; thioether N-14) was run?
Answer: 63.9 nM

Same assay, conditions: PE-labeled PD-L1-Ig 20 nM final, Jurkat-hPD-1 cells; read-out: Jurkat HPD1 PDL1 IC50

Question: Which IC50 does the source give for `CC(=O)NCCCC[C@@H]1NC(=O)[C@H](C(C)(C)O)NC(=O)[C@H](CC2CCCCC2)NC(=O)[C@H](CCN)NC(=O)[C@@H](CC(C)C)NC(=O)[C@H](C)N(C)C(=O)[C@H](CCC(N)=O)NC(=O)[C@H](Cc2ccc(-c3ccccc3)cc2)NC(=O)[C@H](Cc2ccc(C(=O)O)cc2)NC(=O)[C@H](Cc2cccc(C(F)(F)F)c2)NC(=O)[C@H](CC(=O)O)NC(=O)[C@H](Cc2ccc(OCC(=O)O)cc2)NC(=O)[C@H](Cc2ccc(C(F)(F)F)cc2)NC(=O)CSC[C@@H](C(=O)N[C@@H](CCN)C(=O)NCCOCCOCC(=O)NCCCCCCCCCCCCC(=O)O)NC1=O` [Example 2611] ({CH2CO}-[Phe(4-CF3)]Y(Carboxymethyl)D[Phe(3-CF3)][Phe(4-COOH)][Bip]Q[NMeA][dL][Dab][Cha][Val(3-OH)]K(Ac)C[Dab][AEEA]-{NH(CH2)12COOH}; thioether N-14) here?
Answer: 60 nM

Question: Which IC50 does the source give for `CC(=O)NCCCC[C@@H]1NC(=O)[C@H](C(C)(C)O)NC(=O)[C@H](CC2CCCCC2)NC(=O)[C@H](CCN)NC(=O)[C@@H](CC(C)C)NC(=O)[C@H](C)N(C)C(=O)[C@H](C(C)C)NC(=O)[C@H](Cc2ccc(-c3ccccc3)cc2)NC(=O)[C@H](CC(C)C)NC(=O)[C@H](Cc2c[nH]c3ccccc23)NC(=O)[C@H](CC(=O)O)NC(=O)[C@H](Cc2ccc(C(=O)O)cc2)NC(=O)[C@H](Cc2ccc(OCC(=O)O)cc2)NC(=O)CSC[C@@H](C(=O)NCCOCCOCC(=O)NCCCCCCCCCCC(=O)O)NC1=O` [Example 2460] ({CH2CO}-Y(Carboxymethyl)[Phe(4-COOH)]DWL[Bip]V[NMeA][dL][Dab][Cha][Val(3-OH)]K(Ac)C[AEEA][Aun]-OH; thioether N-14) here?
Answer: 14.9 nM
